Results as given in ChEMBL document CHEMBL1201862, “PubChem BioAssay data set” (2004).
The source made the active and inactive calls.

How the values were obtained:
Coagulation factor XII = molecular target: T1, Coagulation factor XII (Homo sapiens, UniProt P00748); type: functional;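 also: activated factor XIIa alpha cleaving a fluorogenic AMC peptide substrate; inhibitor potency from loss of enzyme activity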
T1 sequence (P00748 whole entry): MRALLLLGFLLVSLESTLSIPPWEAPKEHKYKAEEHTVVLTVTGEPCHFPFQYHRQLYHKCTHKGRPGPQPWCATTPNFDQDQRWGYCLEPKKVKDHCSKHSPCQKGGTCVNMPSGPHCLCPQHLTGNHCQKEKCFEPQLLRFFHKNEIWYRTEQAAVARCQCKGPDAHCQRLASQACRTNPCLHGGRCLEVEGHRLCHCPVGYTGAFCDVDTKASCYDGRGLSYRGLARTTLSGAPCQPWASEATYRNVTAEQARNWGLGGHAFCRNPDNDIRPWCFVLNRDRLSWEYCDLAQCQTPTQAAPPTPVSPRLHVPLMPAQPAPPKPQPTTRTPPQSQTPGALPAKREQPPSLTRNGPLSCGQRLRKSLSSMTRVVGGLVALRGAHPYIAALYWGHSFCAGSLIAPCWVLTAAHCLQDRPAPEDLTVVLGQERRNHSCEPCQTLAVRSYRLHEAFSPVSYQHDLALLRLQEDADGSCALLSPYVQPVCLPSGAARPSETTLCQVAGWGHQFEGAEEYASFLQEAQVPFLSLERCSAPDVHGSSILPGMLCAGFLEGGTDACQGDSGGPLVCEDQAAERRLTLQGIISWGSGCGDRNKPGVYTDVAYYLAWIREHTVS

[1] = reduction of Shn3 3'UTR-driven luciferase in osteoblasts – cell-based, Clone20 osteoblasts, firefly luciferase, cherry-picked, dose response (AID 624132); type: functional;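 also: firefly luciferase luminescence from reporter carrying the Shn3 3'UTR in osteoblasts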
[2] = HEK-293T viability loss after treatment – luminescence, T-cell screen hits, cytotoxicity control for TCR NF-kB inhibitor project, dose response (AID 489026); type: functional, cell-based;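 also: cells exposed to compound about 14 hours before the viability readout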
[3] = loss of viability in HepG2 cells – cell-based, CellTiter-Glo, cherry-picked, cytotoxicity control for Shn3 inhibitor project, dose response (AID 624134); type: functional
INS1 = assay: INS-1E survival protection against cytokine death – cell-based, luminescence, retest, dose response (AID 449756); type: functional; conditions: Rattus norvegicus;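 also: cell death triggered by IL-1 beta plus TNF-alpha plus IFN-gamma mixture; protective hits raise ATP signal compared with cytokine alone wells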
[4] = non-specific 3'UTR reporter inhibition in Clone20-Shn3RL – cell-based, Renilla luciferase, cherry-picked, counter-screen for Shn3 inhibitor project, dose response (AID 624133); type: functional
[5] = A Cell Based Secondary Assay To Explore Cytotoxicity of Compounds that Sensitize Mycobacterium Tuberculosis to Beta-Lactam Antibiotics.; type: functional
[6] = molecular target: T2, Heat shock factor protein 1 (Mus musculus, UniProt P38532); assay: decrease of HSF1-responsive luciferase luminescence – cell-based, NIH3T3, dose retest, confirmation (AID 2382); type: functional;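 also: NIH3T3 fibroblasts with HSF1-driven luciferase reporter stressed by proteasome inhibitor MG132; luminescence from HSF1-driven luciferase expression after 8 hours of MG132 stress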
T2 sequence (P38532 whole entry): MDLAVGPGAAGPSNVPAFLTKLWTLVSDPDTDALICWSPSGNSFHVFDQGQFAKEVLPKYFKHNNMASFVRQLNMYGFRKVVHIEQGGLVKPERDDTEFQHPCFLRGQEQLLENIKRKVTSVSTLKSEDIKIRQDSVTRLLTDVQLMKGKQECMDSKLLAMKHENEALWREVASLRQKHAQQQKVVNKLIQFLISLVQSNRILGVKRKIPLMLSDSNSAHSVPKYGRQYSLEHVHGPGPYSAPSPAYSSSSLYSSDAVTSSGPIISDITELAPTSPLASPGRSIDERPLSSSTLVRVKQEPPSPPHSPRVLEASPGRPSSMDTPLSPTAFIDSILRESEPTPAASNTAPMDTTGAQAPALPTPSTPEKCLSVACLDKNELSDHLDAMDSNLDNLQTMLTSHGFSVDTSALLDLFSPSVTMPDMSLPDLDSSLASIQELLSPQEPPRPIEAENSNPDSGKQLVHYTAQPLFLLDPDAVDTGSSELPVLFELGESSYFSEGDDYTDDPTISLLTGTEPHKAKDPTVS

[7] = A cytotoxicity screen of small molecule inhibitors of the PhoP region in Salmonella typhi identified in the primary screen. [Related pubchem assays: 1850, 1864, 1985 ]; type: functional
SUMO-activating enzyme [8] = molecular target: T3, SUMO-activating enzyme (Homo sapiens, UniProt Q9UBT2); assay: blockers of SAE1/SAE2–UBC9 SUMO transfer – biochemical, HTRF, uHTS, primary screen (AID 2006); type: protein-complex assay
T3 sequence (Q9UBE0 whole entry): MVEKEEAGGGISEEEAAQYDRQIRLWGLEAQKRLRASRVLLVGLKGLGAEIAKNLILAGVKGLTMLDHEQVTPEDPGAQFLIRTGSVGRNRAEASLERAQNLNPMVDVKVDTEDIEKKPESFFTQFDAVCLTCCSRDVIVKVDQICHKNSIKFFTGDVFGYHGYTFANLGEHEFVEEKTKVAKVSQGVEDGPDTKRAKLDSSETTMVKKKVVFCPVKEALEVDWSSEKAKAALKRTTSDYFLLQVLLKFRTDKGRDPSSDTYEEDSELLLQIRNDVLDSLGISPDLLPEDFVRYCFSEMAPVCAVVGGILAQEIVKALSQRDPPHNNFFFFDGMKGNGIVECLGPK
T3 sequence (Q9UBT2 whole entry): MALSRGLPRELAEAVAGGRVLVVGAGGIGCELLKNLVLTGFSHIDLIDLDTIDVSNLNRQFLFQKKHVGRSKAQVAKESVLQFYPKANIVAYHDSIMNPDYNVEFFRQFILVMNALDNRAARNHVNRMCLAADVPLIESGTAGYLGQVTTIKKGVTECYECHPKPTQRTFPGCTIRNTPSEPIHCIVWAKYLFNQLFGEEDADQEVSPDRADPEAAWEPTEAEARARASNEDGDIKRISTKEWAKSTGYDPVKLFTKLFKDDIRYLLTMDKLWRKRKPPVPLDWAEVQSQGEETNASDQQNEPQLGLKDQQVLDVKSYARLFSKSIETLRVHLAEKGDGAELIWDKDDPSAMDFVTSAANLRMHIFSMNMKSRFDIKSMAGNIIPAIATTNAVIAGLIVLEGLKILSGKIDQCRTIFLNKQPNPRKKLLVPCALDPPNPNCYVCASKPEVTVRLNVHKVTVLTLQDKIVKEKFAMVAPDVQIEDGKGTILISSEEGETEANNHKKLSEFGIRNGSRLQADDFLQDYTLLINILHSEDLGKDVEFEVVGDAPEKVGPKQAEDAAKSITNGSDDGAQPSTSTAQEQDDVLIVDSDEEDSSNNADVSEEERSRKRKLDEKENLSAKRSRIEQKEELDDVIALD

[9] = Counterscreen for AddAB inhibitors: absorbance-based bacterial cell-based high throughput dose response assay for inhibitors of bacterial viability. [Related pubchem assays (depositor defined):AID435030, AID449728, AID449731, AID488942, AID488955, AID488956]; type: functional
Exodeoxyribonuclease V = molecular target: T4, Exodeoxyribonuclease V (Escherichia coli (strain K12), UniProt P04993+P07648+P08394); assay: RecBCD inhibition via phage-restricted bacterial growth – absorbance, V66 E. coli, mutant T4 phage, counter-screen for AddAB inhibitor project, dose response (AID 492957); type: functional, cell-based, Escherichia coli str. K-12 substr. MG1655
T4 sequence (P04993 whole entry): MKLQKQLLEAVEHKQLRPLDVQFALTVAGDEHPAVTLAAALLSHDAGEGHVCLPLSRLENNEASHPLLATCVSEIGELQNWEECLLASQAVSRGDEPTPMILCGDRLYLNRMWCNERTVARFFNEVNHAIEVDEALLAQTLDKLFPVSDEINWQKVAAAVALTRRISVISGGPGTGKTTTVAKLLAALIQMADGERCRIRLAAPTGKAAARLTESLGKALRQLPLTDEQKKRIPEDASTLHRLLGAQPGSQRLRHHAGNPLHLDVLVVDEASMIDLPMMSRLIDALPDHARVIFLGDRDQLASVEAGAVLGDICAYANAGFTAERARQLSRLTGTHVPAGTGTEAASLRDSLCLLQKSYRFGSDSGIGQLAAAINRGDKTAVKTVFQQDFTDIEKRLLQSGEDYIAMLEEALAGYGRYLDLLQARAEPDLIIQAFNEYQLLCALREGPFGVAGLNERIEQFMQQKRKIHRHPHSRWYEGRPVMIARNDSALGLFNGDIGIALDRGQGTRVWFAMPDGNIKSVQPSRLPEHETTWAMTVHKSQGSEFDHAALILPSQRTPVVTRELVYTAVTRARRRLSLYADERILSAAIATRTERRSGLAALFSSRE
T4 sequence (P07648 whole entry): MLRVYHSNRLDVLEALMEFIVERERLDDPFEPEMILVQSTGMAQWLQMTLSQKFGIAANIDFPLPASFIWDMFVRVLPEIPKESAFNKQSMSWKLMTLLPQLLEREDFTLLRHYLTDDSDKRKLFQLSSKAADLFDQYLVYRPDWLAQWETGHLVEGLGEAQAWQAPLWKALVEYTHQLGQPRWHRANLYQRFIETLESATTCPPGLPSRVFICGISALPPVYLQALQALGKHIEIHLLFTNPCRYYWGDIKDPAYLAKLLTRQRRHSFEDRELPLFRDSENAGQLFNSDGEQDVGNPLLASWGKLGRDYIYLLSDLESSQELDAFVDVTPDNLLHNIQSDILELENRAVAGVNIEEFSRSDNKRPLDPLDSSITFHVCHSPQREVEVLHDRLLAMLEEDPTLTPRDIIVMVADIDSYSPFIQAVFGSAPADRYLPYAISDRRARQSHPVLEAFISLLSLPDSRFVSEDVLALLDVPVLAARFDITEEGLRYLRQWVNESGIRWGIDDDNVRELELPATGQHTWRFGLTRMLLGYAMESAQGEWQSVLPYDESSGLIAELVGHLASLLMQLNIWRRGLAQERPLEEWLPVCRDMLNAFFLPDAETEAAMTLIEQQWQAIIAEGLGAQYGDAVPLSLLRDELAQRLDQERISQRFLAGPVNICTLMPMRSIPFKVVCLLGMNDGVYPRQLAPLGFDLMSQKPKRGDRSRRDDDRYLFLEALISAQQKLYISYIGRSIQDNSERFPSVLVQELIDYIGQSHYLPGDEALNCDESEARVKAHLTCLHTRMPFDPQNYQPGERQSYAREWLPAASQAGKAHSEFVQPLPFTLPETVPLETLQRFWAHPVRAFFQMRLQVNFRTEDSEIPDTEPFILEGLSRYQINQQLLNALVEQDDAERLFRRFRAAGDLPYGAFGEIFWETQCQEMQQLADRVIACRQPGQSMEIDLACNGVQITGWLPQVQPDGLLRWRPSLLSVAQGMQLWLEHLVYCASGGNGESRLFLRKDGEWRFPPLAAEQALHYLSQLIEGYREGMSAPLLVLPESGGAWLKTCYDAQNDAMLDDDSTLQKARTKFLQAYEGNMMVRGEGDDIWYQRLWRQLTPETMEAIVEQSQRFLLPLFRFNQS
T4 sequence (P08394 whole entry): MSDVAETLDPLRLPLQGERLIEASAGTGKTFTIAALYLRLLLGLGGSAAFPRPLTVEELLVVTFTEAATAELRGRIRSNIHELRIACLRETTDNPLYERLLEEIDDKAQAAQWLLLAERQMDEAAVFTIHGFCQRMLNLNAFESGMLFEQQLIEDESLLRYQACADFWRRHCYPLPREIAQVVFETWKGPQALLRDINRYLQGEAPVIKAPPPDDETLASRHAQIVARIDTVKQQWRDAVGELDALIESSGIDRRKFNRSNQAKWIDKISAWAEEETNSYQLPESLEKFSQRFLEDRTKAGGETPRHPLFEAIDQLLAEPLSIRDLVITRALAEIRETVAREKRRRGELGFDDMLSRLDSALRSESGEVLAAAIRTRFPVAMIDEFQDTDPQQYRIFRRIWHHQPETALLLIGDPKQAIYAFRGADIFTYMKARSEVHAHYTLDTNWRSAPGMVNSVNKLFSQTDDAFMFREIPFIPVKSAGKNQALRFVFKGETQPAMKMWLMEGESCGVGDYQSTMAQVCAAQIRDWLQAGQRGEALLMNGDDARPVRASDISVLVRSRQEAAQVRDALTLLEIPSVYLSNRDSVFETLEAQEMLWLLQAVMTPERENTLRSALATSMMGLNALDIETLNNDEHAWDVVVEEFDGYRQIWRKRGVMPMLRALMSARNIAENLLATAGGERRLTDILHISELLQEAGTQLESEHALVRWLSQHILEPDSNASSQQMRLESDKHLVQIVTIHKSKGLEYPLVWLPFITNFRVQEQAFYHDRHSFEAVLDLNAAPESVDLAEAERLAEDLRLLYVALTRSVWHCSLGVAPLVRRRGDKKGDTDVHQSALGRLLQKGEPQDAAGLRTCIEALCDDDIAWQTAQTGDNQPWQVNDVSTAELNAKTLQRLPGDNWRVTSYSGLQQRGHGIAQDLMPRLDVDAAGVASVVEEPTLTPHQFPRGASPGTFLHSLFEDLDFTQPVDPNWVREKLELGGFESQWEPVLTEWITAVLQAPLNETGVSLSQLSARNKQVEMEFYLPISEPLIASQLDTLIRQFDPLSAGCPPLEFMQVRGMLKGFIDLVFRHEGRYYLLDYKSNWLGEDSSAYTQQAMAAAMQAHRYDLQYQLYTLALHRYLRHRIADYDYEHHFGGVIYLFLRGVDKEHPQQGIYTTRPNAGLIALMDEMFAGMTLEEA

SUMO-activating enzyme [10] = molecular target: T3, SUMO-activating enzyme; assay: blockers of UBC9-mediated SUMO conjugation – biochemical, AlphaScreen, SUMOylation inhibitor project, confirmation (AID 2018); type: functional
Albumin = Albumin (Bos taurus, UniProt P02769); assay: Counterscreen for inhibitors of T-cell receptor (TCR)-CD3 interaction: Fluorescence-based biochemical high throughput dose response assay to identify inhibitors of T-cell receptor (TCR)-CD3 interaction using a TAMRA-labeled BSA probe.; type: functional
Chain of Albumin (P02769 whole entry): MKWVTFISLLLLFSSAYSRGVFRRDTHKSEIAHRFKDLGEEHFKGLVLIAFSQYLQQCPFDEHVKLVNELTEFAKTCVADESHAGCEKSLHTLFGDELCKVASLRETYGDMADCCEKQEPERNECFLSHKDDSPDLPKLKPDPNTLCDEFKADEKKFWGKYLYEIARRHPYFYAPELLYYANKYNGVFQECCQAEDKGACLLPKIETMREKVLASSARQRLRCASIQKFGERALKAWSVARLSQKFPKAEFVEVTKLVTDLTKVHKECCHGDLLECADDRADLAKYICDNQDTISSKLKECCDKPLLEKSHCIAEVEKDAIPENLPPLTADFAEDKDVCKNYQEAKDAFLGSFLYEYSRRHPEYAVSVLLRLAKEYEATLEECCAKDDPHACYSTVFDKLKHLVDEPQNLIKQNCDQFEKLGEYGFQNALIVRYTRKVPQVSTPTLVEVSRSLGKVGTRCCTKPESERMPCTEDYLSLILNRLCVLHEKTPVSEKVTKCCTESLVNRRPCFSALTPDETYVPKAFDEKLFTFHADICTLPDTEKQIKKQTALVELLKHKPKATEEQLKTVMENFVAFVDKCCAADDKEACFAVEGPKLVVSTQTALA

Prothrombin = Prothrombin (Homo sapiens, UniProt P00734); assay: Thrombin 1536 HTS Dose Response Confirmation. [Related pubchem assays: 1046 (Thrombin 1536 HTS; hits were confirmed in this assay)]; type: functional
[11] = viability of HCT116 lacking mutant beta-catenin – cell-based, human colon tumor, dose response (AID 1045); type: functional;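 also: HCT116 colon tumor cells with beta catenin knocked out; cells exposed to compound for 60 hours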

Structure (SMILES): Cc1c(NC(=O)CSc2nc3ccccc3s2)c(=O)n(-c2ccccc2)n1C
- IC50 (Coagulation factor XII): > 50 µM (inactive)

Structure (SMILES): C=C(C)C(=O)O[C@H]1C/C(C)=C\C(=O)/C=C(\C)[C@H](O)[C@@H]2OC(=O)C(=C)[C@@H]21
- AC50 [1]: 3.02 µM (active)
- IC50 [2]: > 80 µM (inactive)
- AC50 [3]: 6.81 µM (active)
- AC50 (INS1): 8.02 µM (active)
- AC50 [4]: 11.1 µM (active)
- CC50 [5]: 3.71 µM (active)
- EC50 [6]: 8.1 µM (active)

Structure (SMILES): COCc1n[nH]c2c1C(c1c(F)cccc1Cl)C(C#N)=C(N)O2 (stereo not given)
- EC50 [7]: > 50 µM (active)

Structure (SMILES): COC(=O)Cn1c(=O)c(C)nc2ccccc21
- EC50 [7]: > 50 µM (active)

Structure (SMILES): COc1cccc(/C=C2/SC(=S)N(CC(=O)NNC(=O)c3ccccc3O)C2=O)c1
- IC50 (SUMO-activating enzyme [8]): 11.8 µM (active)
- IC50 [9]: > 119 µM (inactive)
- IC50 (Exodeoxyribonuclease V): > 119 µM (inactive)
- IC50 (SUMO-activating enzyme [10]): 29.4 µM (active)
- IC50 (Albumin): > 94.1 µM (inactive)

Structure (SMILES): CN(C)C(=O)CSc1nnc([C@@H](N)Cc2ccccc2)o1
- IC50 (Prothrombin): > 50 µM (not active)
- IC50 (Coagulation factor XII): > 50 µM (inactive)

Structure (SMILES): CN(Cc1ccccc1O)CC1CCCN(CCc2ccc(Cl)cc2)C1 (stereo not given)
- EC50 [7]: > 50 µM (active)

Structure (SMILES): CCOC(=O)c1cc2sccc2n1CC(=O)N1c2ccccc2CC1C (stereo not given)
- IC50 (Coagulation factor XII): > 50 µM (inactive)
- EC50 [11]: 445 µM (active)
